Experimental data taken from US7989176B2, “Treating cancer” (Theryte Ltd., priority 2002, dated 2011).

How the values were obtained:
HCT116 cells [1] = experiment: TUNEL assay for apoptosis (ApopTag kit); type: cell-based; details: 48 h after transfection
Procedure: (§1) Sense and antisense phosphorothionate oligonucleotide with the sequence set out in SEQ1 and SEQ2 respectively were synthesised in a 380B DNA synthesiser. Each oligonucleotide was premixed with lipofectin reagent and diluted in DMEM (Gibco). 6 cm plates of HCT116 cells at 40-50% confluence were rinsed once with 4 ml serum free DMEM and transfected with the oligonucleotides at a final concentration of 1 μM and the lipofectin reagent at a final concentration of 19 μg/ml according to the manufacturer's instructions (Life Technologies Inc., Gaithersburg, Md.). After 4 hours, Foetal Calf Serum (Gibco) was added to a final concentration of 10%. A lipofectin only transfection was performed as a control. Cell extracts were harvested after 48 h and examined by Western blot analysis with a pRb antibody. Equal loading of protein samples was confirmed by Coomassie blue staining or by immunoreactivity with an anti-actin antibody (Sigma). The intensities of the Rb bands were quantised with an image scanner (Molecular Dynamics). […] The treatment with the sense oligonucleotide led to about a 5% reduction in the level of pRb. […] Apoptosis in the cultures 48 h after transfection was tested for using the TUNEL assay. An in situ apoptosis detection kit ApopTag (Oncor, Gaithersburg, Md.) was used as recommended by the manufacturer. […]

HCT116 cells [2] = experiment: Growth curves of transfected cultures; type: cell-based; details: oligonucleotide 1 μM
Procedure: as §1

pRb = experiment: Western blot analysis of pRb expression after oligonucleotide transfection; type: cell-based; details: HCT116 cells, oligonucleotide 1 μM with lipofectin 19 μg/ml, extracts harvested after 48 h
Procedure: as §1

advanced gastric cancer = details: completed phase II study, patients with advanced gastric cancer (Kaubisch et al. 2000); cited from earlier work

Compound	increase in apoptosis (HCT116 cells [1]; versus lipofectin treated culture) [fold]	percentage of TUNEL positive cells (HCT116 cells [1]; oligonucleotide 1 μM)	effect on growth compared with the lipofectin-treated control culture (HCT116 cells [2])	level of pRb expression relative to the control culture treated only with lipofectin (pRb)	clinical responses (advanced gastric cancer)
antisense oligonucleotide: antisense phosphorothionate oligonucleotide to Rb, sequence SEQ2: 5′ -GGTTTTGGGCGGCATGAC-3′ (DNA, all phosphorothioate, methylation of C not given here)	> 10	18+/−0.5%	growth inhibition	about 30%	–
CN1CC[C@H](c2c(O)cc(O)c3c(=O)cc(-c4ccccc4Cl)oc23)[C@H](O)C1 [flavopiridol]	–	–	–	–	no clinical responses were observed
